Experiment in all cases: DTP human tumour cell line panel, 48 h
Test [1] relates to A549 NSCLC.
The test system of test [2] is IGROV1 ovarian.
In test [3] the test system is NCI/ADR-RES ovarian.
The subject of test [4] is OVCAR-3 ovarian.
The subject of test [5] is PC-3 prostate.
The subject of test [6] is SNB-19 CNS.
Test [7] concerns U251 CNS.
The subject of test [8] is UACC-257 melanoma.

Where “and” joins values, the source holds several entries; their conditions need not be identical. Equal values may be shown once.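 Briefly, cells in 96-well plates were exposed to five compound concentrations for 48 h, and endpoints were estimated by linear interpolation. GI50 is the concentration that inhibits growth by half. At the TGI there is no net growth.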

For `CC1(C)CC(=O)C(C(c2cccc(O)c2O)C2C(=O)CC(C)(C)CC2=O)C(=O)C1`, the TGI in test [1], in test [2], in test [3], in test [4], in test [5] and in test [6] was greater than 100 µM throughout. Moreover, the TGI in test [7] and in test [8] was greater than 100 µM in each case.
Regarding `O=C(O)CNC(=O)c1ccccc1O`, the TGI in test [1], in test [2], in test [3], in test [4], in test [5] and in test [6] was greater than 100 µM throughout. The TGI in test [7] and in test [8] was greater than 100 µM each time.
With `COc1ccccc1CNCCCN1C(=O)c2ccc3c4c(ccc(c24)C1=O)C(=O)N(CCCNCCCCNCCCCN)C3=O`, the GI50 in test [1] is 2.3 µM; in test [2], 2.8 µM; in test [3], 12.8 µM; in test [4] it was 0.475 µM; in test [5] it was 2.5 µM; in test [6], 2.72 µM. In addition, the GI50 was 1.07 µM in test [7] and 0.857 µM in test [8]. In addition, the TGI in test [1] is 7 µM; in test [2], 9.17 µM; in test [3], greater than 100 µM; in test [4], 5.93 µM; in test [5], 10.3 µM; in test [6], 10.1 µM. The TGI in test [7] amounted to 3.25 µM; in test [8] it was 2.22 µM.
For `Cn1cc(C2=C(c3c4n(c5ccccc35)CC(CN)C4)C(=O)NC2=O)c2ccccc21` (stereo not drawn), the GI50 in test [1] is 3.74 µM; in test [2] it was 3.52 µM; in test [3] it was 10.1 µM; in test [4], 2.82 µM; in test [5] it was 2.04 µM; in test [6], 5.39 µM. Further, the GI50 is 2.61 µM in test [7] and 3.92 µM in test [8]. Also, the TGI in test [1] came out at 10.9 µM; in test [2], 9.08 µM; in test [3], 25 µM; in test [4], 9.35 µM; in test [5], 9.01 µM; in test [6] it was 15.3 µM. The TGI in test [7] amounted to 5.77 µM; in test [8], 7.8 µM.
As for `O=C(CCc1nnc(-c2c(Cl)cccc2Cl)o1)c1nc2ccccc2[nH]1`, the GI50 in test [1] was 10.4 µM; in test [2] it was 5.26 µM; in test [3], 5.47 µM; in test [4] it was 5.63 µM; in test [5], 3.71 µM; in test [6], 17.4 µM. Besides, the GI50 in test [7] is 10.9 µM; in test [8] it was 13.7 µM. Besides, the TGI in test [1] was greater than 100 µM; in test [2] it was 39.1 µM; in test [3], greater than 100 µM; in test [4], 24.8 µM; in test [5] it was greater than 100 µM; in test [6], greater than 100 µM. Moreover, the TGI in test [7] amounted to 77.6 µM; in test [8], 44.4 µM.
Take `CCCN(CCC)c1ccc(C=O)cc1`: the GI50 in test [1] is greater than 100 µM; in test [2], greater than 84.4 µM; in test [3] it was 56.3 µM; in test [4] it was 24.9 µM; in test [5], 38.1 µM; in test [6], 62 µM. The values for the GI50 in test [7] and in test [8] were 42 µM and 35 µM, respectively. Further, the TGI in test [1] was greater than 100 µM; in test [2] it was greater than 100 µM; in test [3], greater than 100 µM; in test [4], greater than 87.4 µM; in test [5] it was greater than 100 µM; in test [6] it was greater than 100 µM. In addition, the TGI in test [7] was greater than 100 µM; in test [8], 98.2 µM.
Regarding `C=C1C(=O)O[C@H]2[C@H]1CC/C(COC(=O)/C=C\C(=O)NCc1ccc(Cn3c(=O)sn(-c4ccc(OC)cc4)c3=O)cc1)=C\CC[C@@]1(C)O[C@@H]21`, the GI50 in test [1] is 0.938 µM; in test [2] it was 0.505 µM; in test [3] it was 1.11 µM; in test [4], 0.245 µM; in test [5] it was 0.542 µM; in test [6], 0.879 µM. The GI50 is 0.834 µM in test [7] and 0.85 µM in test [8]. Moreover, the TGI in test [1] came out at 2.88 µM; in test [2], 1.21 µM; in test [3], 4.32 µM; in test [4], 0.898 µM; in test [5], 1.32 µM; in test [6], 1.78 µM. The TGI in test [7] was found to be 2.19 µM; in test [8] it was 1.86 µM.
Consider `COc1ccc2nc3cccc([N+](=O)[O-])c3c(NCCN(CCO)CCO)c2c1`, for which the GI50 is 0.0257 µM in test [1]; 0.0329 µM in test [2]; 0.689 µM in test [3]; 0.0187 µM in test [4]; 0.129 µM in test [6]; 0.021 µM in test [7]. Further, the GI50 in test [8] is 0.0248 µM. In addition, the TGI is 0.403 µM in test [1]; 0.242 µM in test [2]; 4.6 µM in test [3]; 0.0501 µM in test [4]; 0.219 µM in test [5]; 1.45 µM in test [6]. Moreover, the TGI amounted to 0.136 µM in test [7] and 0.0599 µM in test [8].
With `CS(=O)(=O)N1CCN(Cc2cc3nc(-c4cccc5[nH]ncc45)nc(N4CCOCC4)c3s2)CC1`, the GI50 in test [1] was 0.477 µM and 0.43 µM; in test [2] it was 0.0571 µM and 0.0389 µM; in test [3] it was 1.76 µM and 1.44 µM; in test [4], 0.245 µM and 0.194 µM; in test [5] it was 0.218 µM and 0.26 µM; in test [6], 2.91 µM and 0.896 µM. Further, the GI50 is 1.05 µM and 0.684 µM in test [7]; 0.184 µM and 0.162 µM in test [8]. Further, the TGI was 3.71 µM and > 5.34 µM in test [1]; 0.425 µM and 0.301 µM in test [2]; greater than 100 µM in test [3]; 3.82 µM and > 5.15 µM in test [4]; greater than 100 µM in test [5]; greater than 100 µM in test [6]. For the same molecule, the TGI in test [7] was greater than 100 µM; in test [8], 2.77 µM and > 2.32 µM.
Consider `CCOC(=O)c1c[nH]c2c(OCc3ccccc3)c3ccccc3c(O)c2c1=O`, for which the GI50 is 9.33 µM in test [1]; 34.4 µM in test [2]; 10.9 µM in test [3]; 11.1 µM in test [4]; 2.97 µM in test [5]; 16.7 µM in test [6]. In addition, the GI50 in test [7] is 5.78 µM; in test [8], 2.52 µM. Moreover, the TGI in test [1] is greater than 56 µM; in test [2] it was greater than 100 µM; in test [3], greater than 64.7 µM; in test [4], 51 µM; in test [5] it was greater than 68 µM; in test [6] it was 97.1 µM. Further, the TGI came to 25.4 µM in test [7] and 6.63 µM in test [8].

The TGI is the concentration at which net growth stops. High values mean less potent growth arrest, low ones more potent growth arrest. The term GI50 denotes the concentration at which growth is held to half of that of the control.
